The text below walks through data of ChEMBL document CHEMBL5728731, “Alkyl chain modified imidazoquinoline TLR7/8 agonist compounds and uses thereof” (2021).

In test [1] the target is T1, Toll-like receptor 7 (Homo sapiens, UniProt Q9NYK1).
T1 sequence (Q9NYK1 whole entry): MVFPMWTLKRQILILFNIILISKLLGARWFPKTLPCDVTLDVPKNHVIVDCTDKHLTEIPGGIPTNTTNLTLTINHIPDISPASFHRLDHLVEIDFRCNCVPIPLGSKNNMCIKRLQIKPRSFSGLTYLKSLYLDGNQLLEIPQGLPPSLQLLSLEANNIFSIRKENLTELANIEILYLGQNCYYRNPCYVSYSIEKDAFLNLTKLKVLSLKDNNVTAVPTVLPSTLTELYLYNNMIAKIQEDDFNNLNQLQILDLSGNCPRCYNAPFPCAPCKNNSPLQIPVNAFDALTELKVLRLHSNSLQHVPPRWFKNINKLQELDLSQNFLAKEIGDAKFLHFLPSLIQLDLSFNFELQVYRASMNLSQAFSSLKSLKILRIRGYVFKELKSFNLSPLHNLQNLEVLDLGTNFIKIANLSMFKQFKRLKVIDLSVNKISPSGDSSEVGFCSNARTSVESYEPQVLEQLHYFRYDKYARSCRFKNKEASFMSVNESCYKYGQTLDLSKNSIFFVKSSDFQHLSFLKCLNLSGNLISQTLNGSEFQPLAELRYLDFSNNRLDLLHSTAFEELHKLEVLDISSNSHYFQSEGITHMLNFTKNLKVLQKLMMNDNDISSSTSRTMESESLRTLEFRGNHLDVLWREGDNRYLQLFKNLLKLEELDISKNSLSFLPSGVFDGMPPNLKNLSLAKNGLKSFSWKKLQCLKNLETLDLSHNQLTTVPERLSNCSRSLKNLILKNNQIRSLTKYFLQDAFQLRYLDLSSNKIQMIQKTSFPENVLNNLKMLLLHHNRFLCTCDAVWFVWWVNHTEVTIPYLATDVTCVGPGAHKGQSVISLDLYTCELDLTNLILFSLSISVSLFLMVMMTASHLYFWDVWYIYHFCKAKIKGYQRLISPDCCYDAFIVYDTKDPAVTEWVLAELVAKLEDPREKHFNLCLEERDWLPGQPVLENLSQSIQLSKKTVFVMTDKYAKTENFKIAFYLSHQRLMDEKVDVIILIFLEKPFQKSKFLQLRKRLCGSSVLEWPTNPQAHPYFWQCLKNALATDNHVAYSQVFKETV
As to the kind of experiment: (§1) n Vitro Biological Assays: Plasmacytoid dendritic cell (pDC)—enriched peripheral blood mononuclear cells (PBMCs) were prepared from the blood of a series of human donors (3-5 donors/experiment). PBMCs were isolated using Ficoll-Paque Premium® (GE Healthcare, Chicago Ill.) using methods well known to those in the art. pDCs were magnetically isolated from the total recovered PBMC population using CD304 (BDCA-4/Neuropilin-1) microbeads (Miltenyi Biotec, San Diego Calif.), according to the manufacturer's instructions. Isolated pDCs were then added back to between 1 and 2×108 of the corresponding donor's PBMCs for relative enrichment of this cell type. […] Culture supernatants were collected and interferon-alpha (IFNα) protein levels were measured by ELISA (MabTech, Cincinnati Ohio), according to the manufacturer's instructions.Monocytes were magnetically isolated from PBMCs, prepared as described above, following labeling with CD14 microbeads (Miltenyi Biotec, San Diego Calif.), according to the manufacturer's instructions. […] Culture supernatants were collected and tumor necrosis factor alpha (TNFα) protein levels were measured by ELISA (MabTech, Cincinnati Ohio), according to the manufacturer's instructions. In general terms: ELISA stands for enzyme-linked immunosorbent assay.

For test [2], the target named is T2, Toll-like receptor 8 (Homo sapiens, UniProt Q9NR97).
T2 sequence (Q9NR97 whole entry): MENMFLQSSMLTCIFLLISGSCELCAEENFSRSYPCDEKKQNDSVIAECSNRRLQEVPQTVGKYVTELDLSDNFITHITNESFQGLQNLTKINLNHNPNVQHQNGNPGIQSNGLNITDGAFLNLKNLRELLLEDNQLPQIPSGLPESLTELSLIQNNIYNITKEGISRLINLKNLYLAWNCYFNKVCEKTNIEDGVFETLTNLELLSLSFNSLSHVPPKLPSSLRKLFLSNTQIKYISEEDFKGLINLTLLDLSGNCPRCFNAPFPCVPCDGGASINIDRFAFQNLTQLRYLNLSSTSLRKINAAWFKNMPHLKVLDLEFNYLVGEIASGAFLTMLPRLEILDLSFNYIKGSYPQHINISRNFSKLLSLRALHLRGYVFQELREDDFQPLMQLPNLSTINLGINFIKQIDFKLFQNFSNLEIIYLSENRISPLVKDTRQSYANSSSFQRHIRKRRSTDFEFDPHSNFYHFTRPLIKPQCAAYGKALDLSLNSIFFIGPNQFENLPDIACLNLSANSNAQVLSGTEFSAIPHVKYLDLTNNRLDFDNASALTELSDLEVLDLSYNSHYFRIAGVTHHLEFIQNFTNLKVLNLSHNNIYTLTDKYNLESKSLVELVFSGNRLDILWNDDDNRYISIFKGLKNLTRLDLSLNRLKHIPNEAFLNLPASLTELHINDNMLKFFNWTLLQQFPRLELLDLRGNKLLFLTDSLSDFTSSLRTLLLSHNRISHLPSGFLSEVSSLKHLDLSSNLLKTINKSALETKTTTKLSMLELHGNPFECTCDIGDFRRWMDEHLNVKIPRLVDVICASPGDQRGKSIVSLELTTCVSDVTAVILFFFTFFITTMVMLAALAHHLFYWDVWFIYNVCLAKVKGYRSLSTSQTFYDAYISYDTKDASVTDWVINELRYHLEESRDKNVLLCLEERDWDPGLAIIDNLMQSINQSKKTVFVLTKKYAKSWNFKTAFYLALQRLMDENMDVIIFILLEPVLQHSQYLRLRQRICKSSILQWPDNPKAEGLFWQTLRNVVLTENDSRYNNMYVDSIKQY
The description is as §1.

Structures are written as SMILES.

By EC50 is commonly meant the midpoint of the concentration-response curve. As for `CCCCCCCCCCCCCCCCCC(=O)NCc1ccc(Cn2c(CCCC)nc3c(N)nc4ccccc4c32)cc1`, the values for the EC50 in test [1] and in test [2] were 41 nM and 5720 nM, respectively.
For `CCCCCC(=O)NCc1ccc(Cn2c(CCCC)nc3c(N)nc4ccccc4c32)cc1` the same measures were 11 nM and 2140 nM.
As for `CCCCCCCCCCCCCCC(=O)NCc1ccc(Cn2c(CCCC)nc3c(N)nc4ccccc4c32)cc1`, the 50% effective concentration (EC50) in test [1] is 2 nM; in test [2], 827 nM.
